Square brackets hold non-standard residues; d marks the D form. Peptide text beside a SMILES is read from it.
Key:
HMLER‐shEcad = test: cells; assay type: cell-based, human; conditions: 72 h
Source text: (§1) […], and MCF-10A cells were maintained in MEGM with supplements and growth factors bovine pituitary extract, hydrocortisone, human epidermal growth factor, insulin, and gentamicin/amphotericin-B.

MCF‐10A = test: cells; assay type: cell-based, human; conditions: for selectivity for cancerous cells over non‐tumorigenic MCF‐10A: 2D culture, ratio of IC50
Source text: as §1

U2OS = assay type: cell-based, human; conditions: 72 h
HEK293T = test: cells; assay type: cell-based, human; conditions: 72 h
[1] = Tryptophan fluorescent binding assay; conditions: tryptophan fluorescence; 50 µM peptide, lipid titrated 0-5000 µM; phosphate buffered saline 1X, pH 7.4; values as lipid per peptide
Procedure: 50 µM ACP peptides and varied concentrations (concentrations: 0, 25, 50, 100, 150, 200, 250, 500, 1250, and 2500 µM) of POPC or POPC:POPG (3:1 ratio) large unilamellar vesicles were prepared in 10 mM phosphate buffer (pH 7.0). The solutions were measured after 1 h of incubation. Excitation was fixed at 280 nm (slit 9 nm) and emission was collected from 300 to 450 nm (slit 9 nm). The spectra were recorded using Cytation 5 Cell Imaging Multi‐Mode Reader from BioTek and were averaged by three scans.
Lipid Concentration-induced
Name Sequence† 50% Peptide Binding (L/P)
Extended Data Table 3 | Tryptophan binding assay. […]
peptide binding onto liposome. 50 µM peptides were fixed and incubated with titrated lipid (POPC vesicle […]
phosphate buffered saline (1X, pH 7.4). The lipid concentration that causes 50 % peptide binding was determined using tryptophan fluorescent binding assay and the values are shown as lipid per peptide.

[2] = ANTS/DPX liposome leakage assay; conditions: for Peptide Concentration-induced 50 % ANTS/DPX leakage at pH 4.8 (L/P), 3POPC/1POPG Vesicle / Peptide Concentration-induced 50 % ANTS/DPX leakage at pH 4.8 (L/P), POPC Vesicle / Peptide Concentration-induced 50 % ANTS/DPX leakage at pH 7.4 (L/P), 3POPC/1POPG Vesicle / Peptide Concentration-induced 50 % ANTS/DPX leakage at pH 7.4 (L/P), POPC Vesicle: 0.5 mM vesicles, peptide 0-20 µM, 3 h incubation, lipid per peptide; for Peptide Concentration-induced 50 % ANTS/DPX leakage at pH 4.8 (L/P), 3POPC/1POPG Vesicle / Peptide Concentration-induced 50 % ANTS/DPX leakage at pH 4.8 (L/P), POPC Vesicle: HCl-adjusted PBS 1X pH 4.8; for Peptide Concentration-induced 50 % ANTS/DPX leakage at pH 7.4 (L/P), 3POPC/1POPG Vesicle / Peptide Concentration-induced 50 % ANTS/DPX leakage at pH 7.4 (L/P), POPC Vesicle: PBS 1X pH 7.4, high ratio = more potent; for change of ANTS/DPX dye leakage / liposome selectivity at pH 4.8: pH = 4.8 compared with physiological pH, anionic versus neutral liposomes
Procedure: Vesicle preparation: 5 mM ANTS and 12.5 mM DPX were entrapped in 0.1 µm diameter extruded vesicles (either POPC or POPC/POPG at a ratio of 3:1) with lipids. Gel filtration chromatography of Sephadex G‐100 was used to remove external free ANTS/DPX from LUVs with entrapped contents. LUVs were diluted to 0.5 mM and used to measure the leakage activity by the addition of aliquots of ACPs. Leakage was measured after 3 h incubation. 10% Triton was used as the positive control to measure the maximum leakage of the vesicle. Fluorescence emission spectra were recorded using excitation and emission wavelength of 350 and 510 nm for ANTS/DPX using a BioTek Synergy H1 Hybrid Multi‐Mode Reader.
Peptide Concentration-induced Peptide Concentration-induced
Name Sequence† 50 % ANTS/DPX leakage 50 % ANTS/DPX leakage at pH 7.4 (L/P) at pH 4.8 (L/P)
POPC Vesicle 3POPC/1POPG Vesicle POPC Vesicle 3POPC/1POPG Vesicle […]
Extended Data Table 4 | Peptide concentration-induced 50 % ANTS/DPX liposome leakage. 0.5 mM POPC and 3POPC/1POPG vesicles were fixed and incubated with titrated peptide concentration (0, 0.02, […]
hydrochloric acid-adjusted phoshate buffered saline (1X, pH 4.8). The values are shown as lipid per

HMLER = test: cells; assay type: cell-based, human; conditions: 72 h
Source text: as §1

Structure (SMILES): CC(C)C[C@H](NC(=O)CN)C(=O)N[C@@H](CC(C)C)C(=O)N[C@@H](CCC(=O)O)C(=O)N[C@@H](CC(C)C)C(=O)N[C@@H](CC(C)C)C(=O)N[C@@H](CCC(=O)O)C(=O)N[C@@H](CC(C)C)C(=O)N[C@@H](CC(C)C)C(=O)N[C@@H](CC(C)C)C(=O)N[C@@H](Cc1c[nH]cn1)C(=O)N[C@@H](C)C(=O)N[C@@H](C)C(=O)NCC(=O)N[C@@H](Cc1c[nH]c2ccccc12)C(N)=O [EEH] (H-GLLELLELLLHAAGW-NH2)
- IC50 (HMLER‐shEcad): 3.6 ± 0.85 µM
- selectivity for cancerous cells over non‐tumorigenic MCF‐10A (MCF‐10A): > 25 fold
- IC50 (U2OS): 19.6 ± 3.96 µM
- IC50 (HEK293T): 12.9 ± 0.14 µM
- Lipid Concentration-induced 50% Peptide Binding (L/P), 3POPC/1POPG Vesicle [1]: 0.50 L/P
- Lipid Concentration-induced 50% Peptide Binding (L/P), POPC Vesicle [1]: 0.50 L/P
- Peptide Concentration-induced 50 % ANTS/DPX leakage at pH 4.8 (L/P), 3POPC/1POPG Vesicle [2]: 168 L/P
- Peptide Concentration-induced 50 % ANTS/DPX leakage at pH 4.8 (L/P), POPC Vesicle [2]: 58 L/P
- Peptide Concentration-induced 50 % ANTS/DPX leakage at pH 7.4 (L/P), 3POPC/1POPG Vesicle [2]: 755 L/P
- Peptide Concentration-induced 50 % ANTS/DPX leakage at pH 7.4 (L/P), POPC Vesicle [2]: 738 L/P
- change of ANTS/DPX dye leakage / liposome selectivity at pH 4.8 [2]: significantly increased dye leakage from anionic liposomes

Structure (SMILES): CC(C)C[C@H](NC(=O)CN)C(=O)N[C@@H](CC(C)C)C(=O)N[C@@H](CCC(=O)O)C(=O)N[C@@H](CC(C)C)C(=O)N[C@@H](CC(C)C)C(=O)N[C@@H](Cc1c[nH]cn1)C(=O)N[C@@H](CC(C)C)C(=O)N[C@@H](CC(C)C)C(=O)N[C@@H](CC(C)C)C(=O)N[C@@H](CCC(=O)O)C(=O)N[C@@H](C)C(=O)N[C@@H](C)C(=O)NCC(=O)N[C@@H](Cc1c[nH]c2ccccc12)C(N)=O [EHE] (H-GLLELLHLLLEAAGW-NH2)
- IC50 (HMLER‐shEcad): 2.55 ± 0.07 µM
- selectivity for cancerous cells over non‐tumorigenic MCF‐10A (MCF‐10A): > 25 fold
- IC50 (U2OS): 18.2 ± 1.06 µM
- IC50 (HEK293T): 13 µM
- Lipid Concentration-induced 50% Peptide Binding (L/P), 3POPC/1POPG Vesicle [1]: 0.44 L/P
- Lipid Concentration-induced 50% Peptide Binding (L/P), POPC Vesicle [1]: 0.44 L/P
- Peptide Concentration-induced 50 % ANTS/DPX leakage at pH 4.8 (L/P), 3POPC/1POPG Vesicle [2]: 384 L/P
- Peptide Concentration-induced 50 % ANTS/DPX leakage at pH 4.8 (L/P), POPC Vesicle [2]: 75 L/P
- Peptide Concentration-induced 50 % ANTS/DPX leakage at pH 7.4 (L/P), 3POPC/1POPG Vesicle [2]: 706 L/P
- Peptide Concentration-induced 50 % ANTS/DPX leakage at pH 7.4 (L/P), POPC Vesicle [2]: 952 L/P
- change of ANTS/DPX dye leakage / liposome selectivity at pH 4.8 [2]: significantly increased dye leakage from anionic liposomes

Structure (SMILES): CC(C)C[C@H](NC(=O)CN)C(=O)N[C@@H](CC(C)C)C(=O)N[C@@H](CCCCN)C(=O)N[C@@H](CC(C)C)C(=O)N[C@@H](CC(C)C)C(=O)N[C@@H](CCC(=O)O)C(=O)N[C@@H](CC(C)C)C(=O)N[C@@H](CC(C)C)C(=O)N[C@@H](CC(C)C)C(=O)N[C@@H](CCC(=O)O)C(=O)N[C@@H](C)C(=O)N[C@@H](C)C(=O)NCC(=O)N[C@@H](Cc1c[nH]c2ccccc12)C(N)=O [KEE] (H-GLLKLLELLLEAAGW-NH2)
- IC50 (HMLER‐shEcad): 2.05 ± 0.21 µM
- selectivity for cancerous cells over non‐tumorigenic MCF‐10A (MCF‐10A): > 25 fold
- IC50 (U2OS): 49.4 ± 13.3 µM
- IC50 (HEK293T): 11.1 ± 1.84 µM
- Lipid Concentration-induced 50% Peptide Binding (L/P), 3POPC/1POPG Vesicle [1]: 0.20 L/P
- Lipid Concentration-induced 50% Peptide Binding (L/P), POPC Vesicle [1]: 0.20 L/P
- Peptide Concentration-induced 50 % ANTS/DPX leakage at pH 4.8 (L/P), 3POPC/1POPG Vesicle [2]: 108 L/P
- Peptide Concentration-induced 50 % ANTS/DPX leakage at pH 4.8 (L/P), POPC Vesicle [2]: 97 L/P
- Peptide Concentration-induced 50 % ANTS/DPX leakage at pH 7.4 (L/P), 3POPC/1POPG Vesicle [2]: 657 L/P
- Peptide Concentration-induced 50 % ANTS/DPX leakage at pH 7.4 (L/P), POPC Vesicle [2]: 626 L/P
- change of ANTS/DPX dye leakage / liposome selectivity at pH 4.8 [2]: no increase in selectivity at low pH

Structure (SMILES): CC(C)C[C@@H](NC(=O)CN)C(=O)N[C@H](CC(C)C)C(=O)N[C@H](CC(=O)O)C(=O)N[C@H](CC(C)C)C(=O)N[C@H](CC(C)C)C(=O)N[C@H](CCC(=O)O)C(=O)N[C@H](CC(C)C)C(=O)N[C@H](CC(C)C)C(=O)N[C@H](CC(C)C)C(=O)N[C@H](CCCCN)C(=O)N[C@H](C)C(=O)N[C@H](C)C(=O)NCC(=O)N[C@H](Cc1c[nH]c2ccccc12)C(N)=O [d-DEK] (H-G[dL][dL][dD][dL][dL][dE][dL][dL][dL][dK][dA][dA]G[dW]-NH2)
- IC50 (HMLER): 0.44 ± 0.1 µM
- IC50 (HMLER‐shEcad): 0.36 µM
- IC50 (MCF‐10A; 72 h): 0.57 ± 0.01 µM
- IC50 (U2OS): 5.84 ± 0.04 µM
- IC50 (HEK293T): 3.28 ± 0.21 µM

Reference: paper PMC9069370, “Integrated Design of a Membrane‐Lytic Peptide‐Based Intravenous Nanotherapeutic Suppresses Triple‐Negative Breast Cancer” (Advanced Science, 2022)
